# Where two headings read alike, the source gives them in different places.
# Columns and labels:
# [1] = test system: lymphocytic leukemia P388 tumor; test: Therapeutic effect on lymphocytic leukemia P388 tumor; format: in vivo, male CDF1 mice
# Protocol: (2) Therapeutic effect on lymphocytic leukemia P388 tumor
# Five male CDF1 mice each having a weight of about 22 g were used for each group as test animals, and 1×10^6 cells of lymphocytic leukemia P388 tumor were implanted intraperitoneally into the test animals. […] The mean survival days after implantation and increased life span (T/C) (T: mean survival days for the treated groups, C: mean survival days for the control group) were calculated.
# For comparison, 0.2 ml of PBS solution containing mitomycin C was intraperitoneally administered to a group of animals 24 hours after tumor implantation.
# [2] = test system: Salmonella typhi ATCC 9992; test: Minimum inhibitory concentration, agar dilution method; format: cell-based; details: Salmonella enterica, pH 7
# Protocol: (§1) (A) Minimum inhibitory concentration against various microorganisms (MIC μg/ml)
# (§2) The antibacterial activity was measured by the agar dilution method, using a medium (pH 7) prepared by dissolving 3 g of Bacto-Tryptone (Manufacturedby Difco Co., Ltd.), 3 g of meat extract, 1 g of yeast extract, 1 g of glucose and 16 g of agar in 1 l of water.
# [3] = test system: Klebsiella pneumoniae ATCC 10031; test: as above; format: cell-based; details: ATCC10031, pH 7
# Protocol: as §1, §2
# Escherichia coli ATCC 26 = test: as above; format: cell-based; details: ATCC26, pH 7
# Protocol: as §1, §2
# [4] = test system: Shigella sonnei ATCC 9290; test: as above; format: cell-based; details: ATCC9290, pH 7
# Protocol: as §1, §2
# [5] = test system: Staphylococcus aureus ATCC 6538P; test: as above; format: cell-based; details: ATCC6538P, pH 7
# Protocol: as §1, §2
# [6] = test system: Bacillus subtilis No. 10707; test: as above; format: cell-based; details: pH 7
# Protocol: as §1, §2
# Solubility = format: physicochemical
# Acute toxicity = details: mouse, in vivo, ip; intraperitoneal administration to mice
# Sarcoma 180 solid tumor = format: in vivo, male ddY-strain mice; details: for Average Tumor Volume / T/C (average tumor volume treated/control): day 10
# Protocol: (1) Therapeutic effect against Sarcoma 180 solid tumor
# Six male ddY-strain mice each having a weight of about 20 g were used for each group as test animals, and 5×10^6 cells of Sarcoma 180 ascites tumor were implanted subcutaneously into the animals at the axilla. 0.2 ml of phosphate buffered saline (hereinafter referred to as PBS) containing DC-88A or DC-89Al at the concentrations shown in Tables 3 and 4 was administered once intraperitoneally 24 hours after implantation.
# The composition of PBS was 0.8 g/dl NaCl, 0.02 g/dl KCl, […] Na2 HPO4 and 0.02 g/dl KH2 PO4 (pH 7.2).
# The average tumor volume (mm^3) and T/C [T: average tumor volume of the groups treated with the test compound (mm^3), C: that of control group which received an intraperitoneal administration of 0.2 ml of PBS solution (mm^3)] were determined ten days after implantation.
# For comparison, 0.2 ml of PBS containing mitomycin C was intraperitoneally administered to a group of animals 24 hours after tumor implantation.
# [7] = methanol, ethanol, acetone, chloroform, ethyl acetate, DMSO
smiles,measurement,setting,value
"COC(=O)C1(C)NC2=C(C1=O)C13CC1CN(C(=O)c1cc4cc(OC)c(OC)c(OC)c4[nH]1)C3=CC2=O (stereo not drawn) [DC-88A, duocarmycin A]",Increased Life Span (T/C),"[1]; 0.024 mg/kg, continuous administration for five days",1.43
same,Mean Survival Days,"[1]; 0.024 mg/kg, continuous administration for five days, control 11.0",15.7 days
same,Increased Life Span (T/C),[1]; 0.098 mg/kg ip once,1.08
same,Mean Survival Days,"[1]; 0.098 mg/kg ip once 24 h after implantation, control 11.0",11.9 days
same,Increased Life Span (T/C),[1]; 0.195 mg/kg ip once,1.15
same,Mean Survival Days,"[1]; 0.195 mg/kg ip once 24 h after implantation, control 11.0",12.7 days
same,Increased Life Span (T/C),[1]; 0.39 mg/kg ip once,1.14
same,Mean Survival Days,"[1]; 0.39 mg/kg ip once 24 h after implantation, control 11.0",12.5 days
same,Increased Life Span (T/C),[1]; 0.78 mg/kg ip once,1.12
same,Mean Survival Days,"[1]; 0.78 mg/kg ip once 24 h after implantation, control 11.0",12.3 days
same,MIC,[2],10 µg/mL
same,MIC,[3],0.5 µg/mL
same,MIC,Escherichia coli ATCC 26,20 µg/mL
same,MIC,[4],40 µg/mL
same,MIC,[5],0.05 µg/mL
same,MIC,[6],0.05 µg/mL
same,Solubility,Solubility; [7],Soluble
same,Solubility,Solubility; water and hexane (n-hexane),sparingly soluble
same,LD50,Acute toxicity,~0.94 mg/kg
same,Average Tumor Volume,"Sarcoma 180 solid tumor; 0.195 mg/kg ip once 24 h after implantation, control 2124.7",1104.8 mm^3
same,T/C (average tumor volume treated/control),Sarcoma 180 solid tumor; 0.195 mg/kg ip once,0.52
same,Average Tumor Volume,"Sarcoma 180 solid tumor; 0.39 mg/kg ip once 24 h after implantation, control 2124.7",849.9 mm^3
same,T/C (average tumor volume treated/control),Sarcoma 180 solid tumor; 0.39 mg/kg ip once,0.40
same,Average Tumor Volume,"Sarcoma 180 solid tumor; 0.78 mg/kg ip once 24 h after implantation, control 2124.7",467.4 mm^3
same,T/C (average tumor volume treated/control),Sarcoma 180 solid tumor; 0.78 mg/kg ip once,0.22
"CO[C@@]12[C@H](COC(N)=O)C3=C(C(=O)C(C)=C(N)C3=O)N1C[C@@H]1N[C@@H]12 [Mitomycin C, mitomycin C, reference compound]",Increased Life Span (T/C),[1]; 6.0 mg/kg ip,1.60
same,Mean Survival Days,"[1]; 6.0 mg/kg ip 24 h after implantation, control 10.7",17.2 days
same,Average Tumor Volume,"Sarcoma 180 solid tumor; 6 mg/kg ip 24 h after implantation, control 1828.0",499.6 mm^3
same,T/C (average tumor volume treated/control),Sarcoma 180 solid tumor; 6 mg/kg ip,0.27
"COC(=O)C1(C)Nc2c(O)cc3c(c2C1=O)CC(Cl)CN3C(=O)c1cc2cc(OC)c(OC)c(OC)c2[nH]1 (stereo not drawn) [DC-89Al, duocarmycin Cl]",Increased Life Span (T/C),[1]; 0.125 mg/kg ip once,1.28
same,Mean Survival Days,"[1]; 0.125 mg/kg ip once 24 h after implantation, control 10.7",13.8 days
same,Increased Life Span (T/C),[1]; 0.25 mg/kg ip once,1.38
same,Mean Survival Days,"[1]; 0.25 mg/kg ip once 24 h after implantation, control 10.7",14.8 days
same,Increased Life Span (T/C),[1]; 0.5 mg/kg ip once,1.40
same,Mean Survival Days,"[1]; 0.5 mg/kg ip once 24 h after implantation, control 10.7",15.0 days
same,Increased Life Span (T/C),[1]; 1 mg/kg ip once,1.23
same,Mean Survival Days,"[1]; 1 mg/kg ip once 24 h after implantation, control 10.7",13.2 days
same,MIC,[2],> 100 µg/mL
same,MIC,[3],4.2 µg/mL
same,MIC,Escherichia coli ATCC 26,> 100 µg/mL
same,MIC,[5],> 8.4 µg/mL
same,MIC,[6],0.07 µg/mL
same,Solubility,Solubility; [7],readily soluble
same,Solubility,Solubility; water and hexane (n-hexane),sparingly soluble
same,LD50,Acute toxicity,~1.17 mg/kg
same,Average Tumor Volume,"Sarcoma 180 solid tumor; 0.78125 mg/kg ip once 24 h after implantation, control 1828.0",1409.5 mm^3
same,T/C (average tumor volume treated/control),Sarcoma 180 solid tumor; 0.78125 mg/kg ip once,0.77
same,Toxic (printed in column Average Tumor Volume),Sarcoma 180 solid tumor; 1.5625 mg/kg ip once 24 h after implantation,Toxic

# Source: patent US4923990A, “Pyrindamycins A and B and duocarmycin A antibiotics derived from certain streptomyces culture” (priority 1986, dated 1990)
